Results on 7 molecules are retold here after US20090004137A1, “Uridine Derivatives as Antiviral Drugs Against a Flaviviridae, Especially Hcv” (priority 2004, published 2009).

As a reminder, the pIC50 is the negative decadic logarithm of the IC50, by convention in mol/L. What is called IC90 is the concentration needed for an effect of 90%. The term CC50 denotes the concentration at which the toxic effect on the cells reaches its halfway point. One may read the pEC50 as −log10 of the EC50, conventionally taken in molar units. As a reminder, the melting point is the temperature, or range, at which the solid turns liquid.

Structures are written as SMILES. pEC50, pIC50: −log10 of the molar value. Read-outs that look alike come from different tables or passages of the source. A value given as a limit tells only on which side of the number the result lay.

Data set [1] relates to subgenomic HCV replicon BM4-5 in Huh7 cells. As to the kind of experiment: Antiviral assay on HCV subgenomic replicon, Northern blot of (+)-strand HCV RNA. As to conditions: for pIC50: read-out: IC50, anti-HCV activity, (+)-RNA; for IC90: read-out: IC90, anti-HCV activity, (+)-RNA; for Selectivity Index (SI), ratio between CC50 and IC50: replicon system. In kind it is cell-based, Hepatitis C Virus. The procedure:
(§1) Antiviral and Cytotoxicity assays for HCV. Huh7 cells harbouring the subgenomic HCV replicon BM4-5 (J. T. Guo et al., J. Virol. 2001, 75: 8516-8523) were used in this study. Cells were maintained in Dulbecco's modified Eagle's medium high glucose 4.5 g/l (LifeTechnlogies) supplemented with 10% fetal bovine serum, 1% L-glutamine, 1% penicillin and streptomycin, 1% L-Pyruvate and 500 μg/ml of geneticien (G418, Invitrogen). Geneticin was used to select cells permitting the HCV RNA replication. Cells were passaged every four days with a 1:4 ratio.
Cells were seeded in 6-wells plates at a density of 2.5×10^5 cells per well, sixteen hours before the beginning of treatment. […] The administration of each drug was renewed every day for three consecutive days. Ribarivin (ICN Pharmaceuticals), mycophenolic acid (MPA, Sigma), and interferon alpha-2b (IntronA®)) were used in the same conditions as positive controls. The concentrations used for these drugs were respectively: 0; 0.5; 1; 2; 4; 8; 16; 32; 64; 128; 256 and 512 μM for ribavirin, 0; 2.5; 5; 10; 20; 40 μM for mycophenolic acid, and 0; 0.1; 1; 10; 100 and 1000 Ul/mL for IFN alpha-2b. Total RNA was extracted at the end of treatment (24 hours after the last day of treatment) with the <<Extract all>> reagent (Eurobio), which is a mix of phenol and guanidium thiocyanate. Northern blot analysis was then performed using the NorthernMax™-Gly kit (Ambion), following manufacturer's instructions. Five micrograms of total RNA were denaturated in glyoxal buffer at 50° C. for 30 minutes, separated by 1.1% agarose gel electrophoresis, and then transferred for 12 hours onto a charged nylon membrane (HybondN+, Amersham). Hybridization was carried out with three different [^32P]CTP-labelled riboprobes obtained by in vitro transcription (Riboprobe in vitro transcription system, Promega). Two probes were complementary to the NS5A region of the HCV genome of negative polarity and positive polarity. A third probe was complementary to the beta-actin mRNA and obtained by in vitro transcription from a specific plasmid (PTRI beta actin human, reference 7424, Ambion). First, the blot was hybridized with the riboprobes directed against the negative strand of HCV RNA and beta-actin mRNA, respectively. After one night of hybridization at 68° C., the membrane was washed, then exposed to X-ray film and a phosphor screen (phosphorimager). This screen was then scanned and quantitative analysis was achieved using ImageQuant software. The amount of beta-actin mRNA was used as an internal loading control to standardize the amount of HCV RNA detected. The same membrane was subsequently hybridized with the […] to determine the level of positive strand HCV RNA, suing the same approach.
(Replicon systems follow genome replication, usually without infectious particles.)

The nature of data set [2]: Cell viability (neutral red) on the replicon system. In kind it is cell-based. As to conditions: human, Huh7 cells harbouring the subgenomic HCV replicon BM4-5, neutral red test, drug renewed daily for three days, read-out: CC50, cytotoxicity on Replicon System. The procedure:
as §1
(§2) For cell viability assays, cells were seeded in 96-well plates at a density of 12,500 cells per well. They were treated by the different molecules with the same concentrations and conditions than those used for the antiviral assays. Then, cell viability was measured by neutral red assay. Neutral red specifically colors lysosomes and its accumulation depends on cellular membrane integrity. The yield of neutral red incorporated in cells is proportional to the number of living cells. At the end of treatment, culture medium was removed; cells were washed by PBS, then coloured with neutral red at 0.005% for 3 hours at 37° C. Cells were then fixed 1 minute by formol calcium and lysed by atreatment with a vol/vol mixture of acetic acid and ethanol. After 15 minutes incubation, absorbance was read at 490 nm.

Another data set relates to BVDV strain NADL. The data set is described as follows: Antiviral assay on BVDV, inhibition of cytopathic effect in MDBK cells. In kind it is cell-based. As to conditions: Bovine viral diarrhea virus isolates and strains, read-out: EC50 ECP inhibition (3rd day p.i.). As for the experimental part: Antiviral and cytotoxicity assays for BVDV. Noncytopathic-BVDV-free MDBK cells (European Collection of Animal Cell Cultures, Porton Down, U.K.) were kindly provided by Dr N. Zitzmann (Oxford University). Cells were propagated in DMEM F12 (Eurobio) supplemented with 10% horse serum (Life Technologies), 1% L-glutamin (Gibco), 1% penicillin ansd streptomycin (Gibco).
MDBK cells were seeded in microwell plates (96 wells) at a density of 1.10^5 cells per well, then infected with BVDV (strain NADL) (at dilution inducing 100%/o cytopathic effect three days post inoculation, i.e approximately 10 plaque forming units (pfu) per well at three days post infection) for one hour, at 37° C. After a wash with DMEM, infected cells were incubated for three days in the presence of absence of drug; each concentration of drug was added in 12 consecutive wells. The appearance of CPE was visually checked the third day post inoculation to evaluate the IC50 on BVDV (strain NADL), according to the different conditions of treatment.
(In general: Protection from cytopathic effect is a common read-out in antiviral testing.)

A short description of data set [3]: Cytotoxicity on uninfected MDBK cells (neutral red). In kind it is cell-based. As to conditions: cattle (bovine). As for the experimental part:
as §2
Antiviral and cytotoxicity assays for BVDV. Noncytopathic-BVDV-free MDBK cells (European Collection of Animal Cell Cultures, Porton Down, U.K.) were kindly provided by Dr N. Zitzmann (Oxford University). Cells were propagated in DMEM F12 (Eurobio) supplemented with 10% horse serum (Life Technologies), 1% L-glutamin (Gibco), 1% penicillin ansd streptomycin (Gibco). The NADL cytopathic (CP) BVDV strain was obtained from ATCC: VR-504.
Uninfected MDBK cells were grown in the absence or presence of varying concentrations of drug tested. After 3 days, toxicity was evaluated by neutral red coloration as described above.

The nature of data set [4]: Cytotoxicity against PBM cells. In kind it is cell-based. As to conditions: human.
Data set [5] in a line: Cytotoxicity against CEM cells. In kind it is cell-based. As to conditions: human.
Data set [6] can be described thus: Cytotoxicity against VERO cells. In kind it is cell-based. Conditions: African green monkey.
For data set [7], the system named is Huh7 cells harbouring the subgenomic HCV replicon BM4-5. As to the kind of experiment: Cell viability (neutral red) on the replicon system. As to conditions: neutral red test, drug renewed daily for three days, read-out: CC50, cytotoxicity on Replicon System. In kind it is cell-based. The procedure: as §1, §2
The next data set deals with PBM cells. As to the kind of experiment: Cytotoxicity against PBM cells. In kind it is cell-based.
For the next data set, the system named is CEM cells. As to the kind of experiment: Cytotoxicity against CEM cells. In kind it is cell-based.
The test system of the next data set is VERO cells. The data set is described as follows: Cytotoxicity against VERO cells. In kind it is cell-based.
Setting [8] is: Hepatitis C virus, 72 h, Huh7 BM4-5 replicon, positive strand HCV RNA by Northern blot, three days treatment.
Where [9] appears, read: Huh7 BM4-5 replicon, positive strand HCV RNA by Northern blot, three days treatment.

Regarding `NC(=O)c1ncn([C@@H]2O[C@H](CO)[C@@H](O)[C@H]2O)n1` [Ribavirin, 1-β-D-ribofuranosyl-1,2,4-triazole-3-carboxamide, reference compound], in [1] (Hepatitis C virus, 72 h), the pIC50 is 3.77. Besides, the IC90 in data set [1] (setting [8]) was greater than 512 µM. For the same molecule, the “Selectivity Index (SI), ratio between CC50 and IC50” value in data set [1] is reported as less than 1. Further, the values for the CC50 at 3 days in [2] and in [3] were 110 µM and greater than 100 µM, respectively. Moreover, the pEC50 in the data set on BVDV strain NADL is 4.44.

As to `O=c1[nH]c(=O)n([C@H]2C[C@H](O)[C@@H](CO)O2)cc1C#CI` [Compound 12a, 5-(2-Iodoethynyl)-2′-deoxyuridine], the melting point was 135 to 137 °C. In data set [1] (setting [8]), the pIC50 is 4.24 and the IC90 was greater than 239 µM. The “Selectivity Index (SI), ratio between CC50 and IC50” value in data set [1] was greater than 3.2. Besides, the CC50 at 3 days in [2] is greater than 182 µM. Also, it took 7.5 µM to reach half-maximal cytotoxicity in data set [4] (CC50). In [5], this molecule displayed a CC50 of 15.8 µM. For the same molecule, in data set [6], the CC50 is greater than 100 µM.

For `O=c1[nH]c(=O)n([C@@H]2O[C@H](CO)[C@@H](O)[C@H]2O)cc1/C(Cl)=C\I` [Compound 16b, (E)-5-(l-Chloro-2-iodovinyl)-uridine], in [1] (setting [9]), the pIC50 is 4.13. Moreover, the 90% effect concentration (IC90) in data set [1] (setting [9]) was greater than 250 µM. For the same molecule, the CC50 is greater than 200 µM in data set [7], greater than 100 µM in the data set with PBM cells, greater than 100 µM in the data set with CEM cells and greater than 100 µM in the data set with VERO cells.

Take `O=c1[nH]c(=O)n([C@@H]2O[C@H](CO)[C@@H](O)[C@H]2O)cc1C#CBr` [Compound 13b, 5-(2-bromoethynyl)-uridine]: the pIC50 in [1] (setting [8]) was 4.24. Besides, in [1] (setting [8]), the IC90 is greater than 200 µM. Further, the “Selectivity Index (SI), ratio between CC50 and IC50” value in data set [1] is 3.2. Besides, the CC50 at 3 days was 188 µM in [2] and greater than 100 µM in data set [3]. Also, the half-maximal cytotoxic concentration (CC50) in data set [4], in data set [5] and in data set [6] was greater than 100 µM in each case. Also, the negative-log EC50 (pEC50) in the data set on BVDV strain NADL was less than 4.00.

Molecule `O=c1[nH]c(=O)n([C@H]2C[C@H](O)[C@@H](CO)O2)cc1/C(I)=C\I` [Compound 14a, (E)-5-(1,2-Diiodovinyl)-2′-deoxyuridine] showed a melting point of 103 to 105 °C. In addition, in data set [1] (setting [8]), the pIC50 is less than 3.79 and the IC90 is greater than 263 µM. Also, the “Selectivity Index (SI), ratio between CC50 and IC50” value in data set [1] is reported as less than 1. Also, the CC50 at 3 days in data set [2] came out at 76.7 µM. The molecule also had a cytotoxic concentration (CC50) in data set [4] of 14.7 µM. The molecule also registered a CC50 in data set [5] of 19.5 µM. Moreover, in [6], the CC50 is 19.5 µM.

Turning to `O=c1[nH]c(=O)n([C@@H]2O[C@H](CO)[C@@H](O)[C@H]2O)cc1/C(I)=C\I` [Compound 14b, (E)-5-(1,2-Diiodovinyl)-uridine], the melting point lay in the range of 107 to 109 °C. For the same molecule, in data set [1] (setting [8]), the pIC50 is 3.79 and the IC90 was greater than 250 µM. In data set [1], the “Selectivity Index (SI), ratio between CC50 and IC50” value is reported as greater than 1.5. For the same molecule, in data set [2], the CC50 at 3 days is greater than 250 µM. In addition, the CC50 in data set [4] was greater than 100 µM. Moreover, the midpoint of cytotoxicity in data set [5], the CC50, lay at 41.7 µM. Moreover, the midpoint of cytotoxicity in data set [6], the CC50, lay at 49.5 µM.

For `O=c1[nH]c(=O)n([C@@H]2O[C@H](CO)C[C@H]2O)cc1/C(Br)=C\I` [Compound 15c, (E)-5-(1-Bromo-2-iodovinyl)-3′-deoxyuridine], the pIC50 in data set [1] (setting [8]) was less than 3.70. The IC90 in data set [1] (setting [8]) is greater than 200 µM. For the same molecule, the “Selectivity Index (SI), ratio between CC50 and IC50” value in [1] was “≦1”. For the same molecule, the CC50 at 3 days was greater than 200 µM in [2] and greater than 100 µM in data set [3]. The values for the CC50 in data set [4], in data set [5] and in data set [6] were 71.5 µM, 79.3 µM and greater than 100 µM, respectively. Moreover, the pEC50 in the data set with BVDV strain NADL was less than 4.00.
